Assay results published in patent US5202315A, “Cephalosporin compounds” (Lucky, Ltd., priority 1989, dated 1993).
In brackets after ≈: the same amount, converted by molar mass. Read-outs that look alike come from different tables or passages of the source.

Experiments:
Escherichia coli = experiment: Antibacterial activity against clinically isolated strains, MIC; assay type: cell-based
[1] = tested on: Klebsiella pneumoniae ATCC 10031; experiment: Antibacterial activity, MIC; assay type: cell-based
In short: (§1)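 Agar two-fold dilution method: compound serially diluted two-fold in Mueller-Hinton agar, spotted with 2 μl of a 10^7 CFU/ml inoculum of each standard strain, then incubated at 37 °C for 20 h.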

[2] = tested on: Shigella flexneri ATCC 11836; experiment: Antibacterial activity, MIC; assay type: cell-based; settings: ATCC11836, agar two-fold dilution, 37° C., 20 hours
In short: as §1

[3] = tested on: Pseudomonas aeruginosa ATCC 25619; experiment: Antibacterial activity, MIC; assay type: cell-based
In short: as §1

[4] = tested on: Providencia rettgeri ATCC 9250; experiment: Antibacterial activity, MIC; assay type: cell-based; settings: ATCC9250, agar two-fold dilution, 37° C., 20 hours
In short: as §1

[5] = tested on: Proteus vulgaris ATCC 6059; experiment: Antibacterial activity, MIC; assay type: cell-based
In short: as §1

[6] = tested on: Micrococcus luteus ATCC 9341; experiment: Antibacterial activity, MIC; assay type: cell-based
In short: as §1

[7] = tested on: Escherichia coli ATCC 25922; experiment: Antibacterial activity, MIC; assay type: cell-based; settings: ATCC25922, agar two-fold dilution, 37° C., 20 hours
In short: as §1

[8] = tested on: Escherichia coli ATCC 10536; experiment: Antibacterial activity, MIC; assay type: cell-based; settings: ATCC10536, agar two-fold dilution, 37° C., 20 hours
In short: as §1

[9] = tested on: Staphylococcus epidermidis ATCC 12228; experiment: Antibacterial activity, MIC; assay type: cell-based
In short: as §1

[10] = tested on: Shigella sonnei ATCC 11060; experiment: Antibacterial activity, MIC; assay type: cell-based; settings: ATCC11060, ATCC 11060, agar two-fold dilution, 37° C., 20 hours, read-out: MIC
In short: as §1

[11] = tested on: Proteus mirabilis ATCC 25933; experiment: Antibacterial activity, MIC; assay type: cell-based
In short: as §1

[12] = tested on: Enterobacter cloacae ATCC 27508; experiment: Antibacterial activity, MIC; assay type: cell-based
In short: as §1

[13] = tested on: Bacillus cereus ATCC 11778; experiment: Antibacterial activity, MIC; assay type: cell-based
In short: as §1

[14] = tested on: Pseudomonas aeruginosa ATCC 10145; experiment: Antibacterial activity, MIC; assay type: cell-based
In short: as §1

[15] = tested on: Citrobacter freundii ATCC 8090; experiment: Antibacterial activity, MIC; assay type: cell-based
In short: as §1

[16] = tested on: Staphylococcus aureus ATCC 10537; experiment: Antibacterial activity, MIC; assay type: cell-based
In short: as §1

[17] = tested on: Staphylococcus aureus ATCC 6538p; experiment: Antibacterial activity, MIC; assay type: cell-based; settings: ATCC6538P
In short: as §1

[18] = tested on: Streptococcus faecalis ATCC 29212; experiment: Antibacterial activity, MIC; assay type: cell-based; settings: Enterococcus faecalis
In short: as §1

[19] = tested on: Salmonella typhimurium ATCC 14028; experiment: Antibacterial activity, MIC; assay type: cell-based; settings: Salmonella enterica
In short: as §1

[20] = tested on: Morganella morganii ATCC 8076h; experiment: Antibacterial activity, MIC; assay type: cell-based; settings: ATCC8076H, agar two-fold dilution, 37° C., 20 hours
In short: as §1

[21] = tested on: Serratia marcescens ATCC 27117; experiment: Antibacterial activity, MIC; assay type: cell-based
In short: as §1

[22] = tested on: Bacillus megaterium ATCC 9885; experiment: Antibacterial activity, MIC; assay type: cell-based; settings: Priestia megaterium
In short: as §1

[23] = tested on: Enterobacter aerogenes ATCC 29751; experiment: Antibacterial activity, MIC; assay type: cell-based; settings: Klebsiella aerogenes
In short: as §1

[24] = tested on: Acinetobacter calcoaceticus ATCC 15473; experiment: Antibacterial activity, MIC; assay type: cell-based
In short: as §1

[25] = tested on: Pseudomonas aeruginosa ATCC 27853; experiment: Antibacterial activity, MIC; assay type: cell-based
In short: as §1

[26] = tested on: Staphylococcus aureus methicillin susceptible; experiment: Antibacterial activity against clinically isolated strains, MIC; assay type: cell-based
Pseudomonas aeruginosa = experiment: as above; assay type: cell-based
[27] = tested on: Staphylococcus aureus methicillin resistant; experiment: as above; assay type: cell-based
Klebsiella pneumoniae = experiment: as above; assay type: cell-based
[28] = In-vivo absorbency (plasma concentrations & pharmacokinetic parameters); parameters: species or system SD rat (male)
[29] = as above; parameters: species or system SD rat (male); remark: listed apart in the source
Text: The blood samples from the femoral vein of the rats were taken every hour after administration, and analyzed by bio-assay(agar well method).
Tested animal: SD male Rat (220~340 g)

Pseudomonas = experiment: Antibacterial activity; assay type: cell-based; settings: statement in words

## CC(C)(O/N=C(\C(=O)N[C@@H]1C(=O)N2C(C(=O)[O-])=C(C[n+]3ccccc3)CS[C@H]12)c1csc(N)n1)C(=O)O [Ceftazidime, reference compound]
Escherichia coli
  MIC50: 0.13 µg/mL (≈ 0.238 µM)
Escherichia coli; 38 clinical isolates, broth microdilution test
  MIC90: 0.13 µg/mL (≈ 0.238 µM)
[1]; ATCC10031, 20 h
  MIC: 0.13 µg/mL (≈ 0.238 µM)
[2]
  MIC: 0.063 µg/mL (≈ 0.115 µM)
[3]; ATCC25619, 20 h
  MIC: 1 µg/mL (≈ 1.83 µM)
[4]
  MIC: ≤ 0.008 µg/mL
[5]; ATCC6059, 20 h
  MIC: 0.063 µg/mL (≈ 0.115 µM)
[6]; ATCC9341, 20 h
  MIC: 1 µg/mL (≈ 1.83 µM)
[7]
  MIC: 0.13 µg/mL (≈ 0.238 µM)
[8]
  MIC: 0.13 µg/mL (≈ 0.238 µM)
[9]; ATCC12228, 20 h
  MIC: 8 µg/mL (≈ 14.6 µM)
[10]
  MIC: 0.13 µg/mL (≈ 0.238 µM)
[11]; ATCC25933, 20 h
  MIC: 0.063 µg/mL (≈ 0.115 µM)
[12]; ATCC27508, 20 h
  MIC: 0.063 µg/mL (≈ 0.115 µM)
[13]; ATCC11778, 20 h
  MIC: 128 µg/mL (≈ 234 µM)
[14]; ATCC10145, 20 h
  MIC: 2 µg/mL (≈ 3.66 µM)
[15]; ATCC8090, 20 h
  MIC: 0.25 µg/mL (≈ 0.457 µM)
[16]; ATCC10537, 20 h
  MIC: 8 µg/mL (≈ 14.6 µM)
[17]; 20 h
  MIC: 16 µg/mL (≈ 29.3 µM)
[18]; ATCC29212, 20 h
  MIC: > 128 µg/mL
[19]; 20 h
  MIC: 0.25 µg/mL (≈ 0.457 µM)
[20]
  MIC: 0.016 µg/mL (≈ 0.0293 µM)
[21]; ATCC27117, 20 h
  MIC: 0.13 µg/mL (≈ 0.238 µM)
[22]; ATCC9885, 20 h
  MIC: 0.25 µg/mL (≈ 0.457 µM)
[23]; ATCC29751, 20 h
  MIC: 8 µg/mL (≈ 14.6 µM)
[24]; ATCC15473, 20 h
  MIC: 4 µg/mL (≈ 7.32 µM)
[25]; ATCC27853, 20 h
  MIC: 1 µg/mL (≈ 1.83 µM)
[26]
  MIC50: 8 µg/mL (≈ 14.6 µM)
  MIC90: 8 µg/mL (≈ 14.6 µM)
Pseudomonas aeruginosa
  MIC50: 4 µg/mL (≈ 7.32 µM)
  MIC90: 16 µg/mL (≈ 29.3 µM)
[27]
  MIC50: 128 µg/mL (≈ 234 µM)
  MIC90: > 128 µg/mL
Klebsiella pneumoniae
  MIC50: 0.063 µg/mL (≈ 0.115 µM)
  MIC90: 0.5 µg/mL (≈ 0.915 µM)
[28]; rat, in vivo, iv, 20 mg/kg
  AUC: 31100 ng·h/mL
  concentration at 1 min: 135000 ng/mL
  concentration at 2.5 min: 94000 ng/mL
  concentration at 5 min: 71000 ng/mL
  concentration at 10 min: 53000 ng/mL
  concentration at 20 min: 26000 ng/mL
  concentration at 40 min: 10000 ng/mL
[29]; rat, in vivo, iv, 20 mg/kg
  concentration at 1 h: 4700 ng/mL
  concentration at 2 h: 1600 ng/mL

## CC(C)(O/N=C(\C(=O)NC1C(=O)N2C(C(=O)[O-])=C(CSc3nc(N)cc(N)[n+]3N)CS[C@H]12)c1csc(N)n1)C(=O)O (stereo partly drawn) [Compound I-15, 7-[(Z)-2-(2-aminothiazol-4-yl)-2-(2-carboxyprop-2-oxyimino)acetamido]-3-(1,4,6-triaminopyrimidinium-2-yl) thiomethyl-3-cephem-4-carboxylate]
[1]; ATCC10031, ATCC 10031, agar two-fold dilution, 37° C., 20 hours, read-out: MIC
  MIC: 0.063 µg/mL (≈ 0.101 µM)
[2]
  MIC: 0.031 µg/mL (≈ 0.0496 µM)
[3]; ATCC25619, ATCC 25619, agar two-fold dilution, 37° C., 20 hours, read-out: MIC
  MIC: 1 µg/mL (≈ 1.6 µM)
[4]
  MIC: ≤ 0.008 µg/mL
[5]; ATCC6059, ATCC 6059, agar two-fold dilution, 37° C., 20 hours, read-out: MIC
  MIC: 0.016 µg/mL (≈ 0.0256 µM)
[6]; ATCC9341, ATCC 9341, agar two-fold dilution, 37° C., 20 hours, read-out: MIC
  MIC: 0.25 µg/mL (≈ 0.4 µM)
[7]
  MIC: 0.063 µg/mL (≈ 0.101 µM)
[8]
  MIC: 0.063 µg/mL (≈ 0.101 µM)
[9]; ATCC12228, ATCC 12228, agar two-fold dilution, 37° C., 20 hours, read-out: MIC
  MIC: 2 µg/mL (≈ 3.2 µM)
[10]
  MIC: 0.063 µg/mL (≈ 0.101 µM)
[11]; ATCC25933, ATCC 25933, agar two-fold dilution, 37° C., 20 hours, read-out: MIC
  MIC: 0.016 µg/mL (≈ 0.0256 µM)
[12]; ATCC27508, ATCC 27508, agar two-fold dilution, 37° C., 20 hours, read-out: MIC
  MIC: 0.016 µg/mL (≈ 0.0256 µM)
[13]; ATCC11778, ATCC 11778, agar two-fold dilution, 37° C., 20 hours, read-out: MIC
  MIC: 64 µg/mL (≈ 102 µM)
[14]; ATCC10145, ATCC 10145, agar two-fold dilution, 37° C., 20 hours, read-out: MIC
  MIC: 1 µg/mL (≈ 1.6 µM)
[15]; ATCC8090, ATCC 8090, agar two-fold dilution, 37° C., 20 hours, read-out: MIC
  MIC: 0.063 µg/mL (≈ 0.101 µM)
[16]; ATCC10537, ATCC 10537, agar two-fold dilution, 37° C., 20 hours, read-out: MIC
  MIC: 2 µg/mL (≈ 3.2 µM)
[17]; ATCC 6538p, agar two-fold dilution, 37° C., 20 hours, read-out: MIC
  MIC: 4 µg/mL (≈ 6.4 µM)
[18]; ATCC29212, ATCC 29212, agar two-fold dilution, 37° C., 20 hours, read-out: MIC
  MIC: > 128 µg/mL
[19]; ATCC 14028, agar two-fold dilution, 37° C., 20 hours, read-out: MIC
  MIC: 0.13 µg/mL (≈ 0.208 µM)
[20]
  MIC: ≤ 0.008 µg/mL
[21]; ATCC27117, ATCC 27117, agar two-fold dilution, 37° C., 20 hours, read-out: MIC
  MIC: 0.063 µg/mL (≈ 0.101 µM)
[22]; ATCC9885, ATCC 9885, agar two-fold dilution, 37° C., 20 hours, read-out: MIC
  MIC: 0.5 µg/mL (≈ 0.8 µM)
[23]; ATCC29751, ATCC 29751, agar two-fold dilution, 37° C., 20 hours, read-out: MIC
  MIC: 1 µg/mL (≈ 1.6 µM)
[24]; ATCC15473, ATCC 15473, agar two-fold dilution, 37° C., 20 hours, read-out: MIC
  MIC: 2 µg/mL (≈ 3.2 µM)
[25]; ATCC27853, ATCC 27853, agar two-fold dilution, 37° C., 20 hours, read-out: MIC
  MIC: 1 µg/mL (≈ 1.6 µM)
Pseudomonas
  antibacterial activities, especially against Pseudomonas: excellent
[28]; plasma, 1 min, SD male rat, iv 20 mg/kg, read-out: Plasma Conc.
  concentration at 1 min: 148000 ng/mL
[28]; plasma, 2.5 min, SD male rat, iv 20 mg/kg, read-out: Plasma Conc.
  concentration at 2.5 min: 104000 ng/mL
[28]; plasma, 5 min, SD male rat, iv 20 mg/kg, read-out: Plasma Conc.
  concentration at 5 min: 71000 ng/mL
[28]; plasma, 10 min, SD male rat, iv 20 mg/kg, read-out: Plasma Conc.
  concentration at 10 min: 53000 ng/mL
[28]; plasma, 20 min, SD male rat, iv 20 mg/kg, read-out: Plasma Conc.
  concentration at 20 min: 22000 ng/mL
[28]; plasma, 40 min, SD male rat, iv 20 mg/kg, read-out: Plasma Conc.
  concentration at 40 min: 10000 ng/mL
[29]; plasma, 60 min, SD male rat, iv 20 mg/kg, read-out: Plasma Conc.
  concentration at 1 h: 2400 ng/mL
[29]; plasma, 120 min, SD male rat, iv 20 mg/kg, read-out: Plasma Conc.
  concentration at 2 h: 600 ng/mL
[29]; plasma, SD male rat, iv 20 mg/kg, two compartment model
  AUC: 43400 ng·h/mL
[29]; rat, plasma, iv, 20 mg/kg, SD male rat, iv 20 mg/kg, two compartment model, read-out: T1/2 (α)
  half-life: 3 min
[29]; rat, plasma, iv, 20 mg/kg, SD male rat, iv 20 mg/kg, two compartment model, read-out: T1/2 (β)
  half-life: 29 min
